Data published in patent US20240174680A1, “CDK2 INHIBITORS AND METHODS OF USING THE SAME” (Cedilla Therapeutics, Inc., priority 2021, published 2024).
pIC50: −log10 of the molar value.

Target: CDK2/Cyclin E1 (Homo sapiens, UniProt P24941)
Assay: CDK2/Cyclin E1 Caliper LabChip EZ Reader mobility shift assay
Format: biochemical
Design: purchased Eurofins 14-475
Conditions: read-out: Caliper Assay (CDK2/CCNE1): IC50
Outline: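 Mobility-shift kinase assay: compound titrations preincubated 30 min with enzyme and ATP, reaction started with 5-FAM-QSPKKG-CONH2 peptide. Final 2.5 nM CDK2/Cyclin E1, 100 μM ATP, 1.5 μM peptide, HEPES pH 7.5; stopped with EDTA after 100 min. IC50 from four-parameter fit of normalized conversion ratio.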

C[C@@H](OCC1CCCCC1)[C@H](NC(=O)[C@@H]1CN(C(=O)c2cnn(Cc3ccccc3)c2)CC12CN(C(=O)[C@H]1CC1(C)C)C2)C(=O)N1CCC(c2cc[nH]n2)CC1 [I-443]
pIC50: ≥ 8.00

C[C@@H](OCC1CCC2(CCC2)CC1)[C@H](NC(=O)[C@@H]1CN(C(=O)c2cnn(Cc3ccccc3)c2)CC12CN(C(=O)[C@H]1CC1(C)C)C2)C(=O)N1CCC(c2cnc[nH]2)CC1 [I-444]
pIC50: ≥ 8.00

C[C@@H](OCC1CCCCC1)[C@H](NC(=O)[C@@H]1CN(C(=O)c2cnn(Cc3ccccc3)c2)CC12CN(C(=O)[C@H]1CC1(C)C)C2)C(=O)N1CCC(c2nccs2)CC1 [I-445]
pIC50: ≥ 8.00

C[C@@H](OCC1CCCCC1)[C@H](NC(=O)[C@@H]1CN(C(=O)c2cnn(Cc3ccccc3)c2)CC12CN(C(=O)[C@H]1CC1(C)C)C2)C(=O)N1CCC(c2ncc[nH]2)CC1 [I-446]
pIC50: ≥ 8.00

COC[C@H]1CCCN(C(=O)[C@@H](NC(=O)[C@@H]2CN(C(=O)c3cncs3)CC23CN(S(=O)(=O)C(C)(C)C)C3)[C@@H](C)OCC2CCCCC2)C1 [I-447, (S)-2-(tert-butylsulfonyl)-N-((2S,3R)-3-(cyclohexylmethoxy)-1-((S)-3-(methoxymethyl)piperidin-1-yl)-1-oxobutan-2-yl)-6-(thiazole-5-carbonyl)-2,6-diazaspiro[3.4]octane-8-carboxamide]
pIC50: 6.00 to 7.00

C[C@@H](OCC12CCC(CC1)OC2)[C@H](NC(=O)[C@@H]1CN(C(=O)c2cnco2)CC12CN(C(=O)C(C)(C)C1CC1)C2)C(C)(C)O [I-448]
pIC50: 5.00 to 6.00

C[C@@H](OCC1CCCCC1)[C@H](NC(=O)[C@@H]1CN(C(=O)c2cnn(Cc3ccccc3)c2)CC12CN(C(=O)[C@H]1CC1(C)C)C2)C(=O)N1CCC(c2nnco2)CC1 [I-449]
pIC50: ≥ 8.00

C[C@@H](OCC12CCC(CC1)OC2)[C@H](NC(=O)[C@@H]1CN(C(=O)c2cnco2)CC12CN(C(=O)[C@H]1CC1(C)C)C2)C(C)(C)O [I-450]
pIC50: 6.00 to 7.00

COC1CCN(C(=O)[C@@H](NC(=O)[C@@H]2CN(C(=O)c3sc(C)nc3C)CC23CN(C(=O)[C@H]2CC2(C)C)C3)[C@@H](C)OCC23CCC(CC2)OC3)CC1 [I-451]
pIC50: 7.00 to 8.00

C[C@@H](OCC12CCC(CC1)OC2)[C@H](NC(=O)[C@@H]1CN(C(=O)c2cncs2)CC12CN(C(=O)[C@H]1CC1(C)C)C2)C(=O)N1CCC(C)(C)CC1 [I-452]
pIC50: ≥ 8.00

C[C@@H](OCC12CCC(CC1)OC2)[C@H](NC(=O)[C@@H]1CN(C(=O)c2cncs2)CC12CN(C(=O)[C@H]1CC1(C)C)C2)C(=O)N1CCCC2(COC2)C1 [I-453]
pIC50: ≥ 8.00

C[C@@H](OCC12CCC(CC1)OC2)[C@H](NC(=O)[C@@H]1CN(C(=O)c2cncs2)CC12CN(C(=O)[C@H]1CC1(C)C)C2)C(=O)N1CCC(C(F)(F)F)CC1 [I-454, (S)—N-((2S,3R)-3-((2-oxabicyclo[2.2.2]octan-4-yl)methoxy)-1-oxo-1-(4-(trifluoromethyl)piperidin-1-yl)butan-2-yl)-2-((S)-2,2-dimethylcyclopropane-1-carbonyl)-6-(thiazole-5-carbonyl)-2,6-diazaspiro[3.4]octane-8-carboxamide]
pIC50: ≥ 8.00

Cc1nc(C)c(C(=O)N2C[C@@H](C(=O)N[C@H](C(=O)N3CCC(OC(F)(F)F)CC3)[C@@H](C)OCC34CCC(CC3)OC4)C3(C2)CN(C(=O)[C@H]2CC2(C)C)C3)s1 [I-455]
pIC50: 7.00 to 8.00

Cc1nc(C)c(C(=O)N2C[C@@H](C(=O)N[C@H](C(=O)N3CCC(C(F)(F)F)CC3)[C@@H](C)OCC34CCC(CC3)OC4)C3(C2)CN(C(=O)[C@H]2CC2(C)C)C3)s1 [I-456]
pIC50: ≥ 8.00

C[C@@H](OCC12CCC(CC1)OC2)[C@H](NC(=O)[C@@H]1CN(C(=O)c2cncs2)CC12CN(C(=O)[C@H]1CC1(C)C)C2)C(=O)N1CCC(OC(F)(F)F)CC1 [I-457]
pIC50: 7.00 to 8.00

C[C@@H](OCC12CCC(CC1)OC2)[C@H](NC(=O)[C@@H]1CN(C(=O)c2cncs2)CC12CN(C(=O)[C@H]1CC1(C)C)C2)C(=O)N1CCC2(CC1)CC2 [I-458]
pIC50: ≥ 8.00

[2H]C([2H])([2H])OC[C@H]1CCCN(C(=O)[C@@H](NC(=O)[C@@H]2CN(C(=O)c3cncs3)CC23CN(C(=O)C(C)(C)C2CC2)C3)[C@@H](C)OCC23CCC(CC2)OC3)C1 [I-459]
pIC50: 7.00 to 8.00

C[C@@H](OCC12CCC(CC1)OC2)[C@H](NC(=O)[C@@H]1CN(C(=O)c2cncs2)CC12CN(C(=O)[C@H]1CC1(C)C)C2)C(=O)N1CCC[C@H](COC(F)(F)F)C1 [I-460]
pIC50: ≥ 8.00

C[C@@H](OCC12CCC(CC1)OC2)[C@H](NC(=O)[C@@H]1CN(C(=O)c2cncs2)CC12CN(C(=O)[C@H]1CC1(C)C)C2)C(=O)N1CCC[C@H](COC(F)F)C1 [I-461]
pIC50: ≥ 8.00

CNC(=O)[C@@H](NC(=O)[C@@H]1CN(C(=O)c2cncs2)CC12CN(C(=O)[C@H]1CC1(C)C)C2)[C@@H](C)OCC1CC2CCC1O2 (stereo partly drawn) [I-462]
pIC50: 6.00 to 7.00

CNC(=O)[C@@H](NC(=O)[C@@H]1CN(C(=O)c2cncs2)CC12CN(C(=O)[C@H]1CC1(C)C)C2)[C@@H](C)OC1C2CC3CC(C2)CC1C3 (stereo partly drawn) [I-463]
pIC50: 7.00 to 8.00

CNC(=O)[C@@H](NC(=O)[C@@H]1CN(C(=O)c2cncs2)CC12CN(C(=O)[C@H]1CC1(C)C)C2)[C@@H](C)OC1CC2CCC1CC2 (stereo partly drawn) [I-464]
pIC50: 7.00 to 8.00

CNC(=O)[C@@H](NC(=O)[C@@H]1CN(C(=O)c2cncs2)CC12CN(C(=O)[C@H]1CC1(C)C)C2)[C@@H](C)OCC1CC2CCC1C2 (stereo partly drawn) [I-465]
pIC50: ≥ 8.00

COC[C@H]1CCCN(C(=O)[C@@H](NC(=O)[C@@H]2CN(C(=O)c3cncs3)CC23CN(C(=O)[C@H]2CC2(C)C)C3)[C@@H](C)O[C@@H](C)C2CCCCC2)C1 [I-467]
pIC50: ≥ 8.00

C[C@@H](OCC1CCC(F)(F)CC1)[C@H](NC(=O)[C@@H]1CN(C(=O)c2cncs2)CC12CN(C(=O)[C@H]1CC1(C)C)C2)C(=O)N1C2CCC1COC2 [I-468]
pIC50: ≥ 8.00

C[C@@H](OCc1ccc(C(F)(F)F)cc1)[C@H](NC(=O)[C@@H]1CN(C(=O)c2cncs2)CC12CN(C(=O)[C@H]1CC1(C)C)C2)C(=O)N1C2CCC1COC2 [I-470]
pIC50: ≥ 8.00

C[C@@H](OCC12CCC(CC1)OC2)[C@H](NC(=O)[C@@H]1CN(C(=O)c2sc(Cl)nc2Cl)CC12CN(C(=O)C(C)(C)C1CC1)C2)C(C)(C)O [I-471]
pIC50: 5.00 to 6.00

C[C@@H](OCC1CCCCC1)[C@H](NC(=O)[C@@H]1CN(C(=O)c2cnn(Cc3ccccc3)c2)CC12CN(C(=O)[C@H]1CC1(C)C)C2)C(=O)NCC(C)(C)C(=O)O [I-472]
pIC50: ≥ 8.00

CCOC(=O)C(C)(C)CNC(=O)[C@@H](NC(=O)[C@@H]1CN(C(=O)c2cnn(Cc3ccccc3)c2)CC12CN(C(=O)[C@H]1CC1(C)C)C2)[C@@H](C)OCC1CCCCC1 [I-473]
pIC50: ≥ 8.00

C[C@@H](OCC1CCCCC1)[C@H](NC(=O)[C@@H]1CN(C(=O)c2cnn(Cc3ccccc3)c2)CC12CN(C(=O)[C@H]1CC1(C)C)C2)C(=O)NCC1(C(=O)O)CC1 [I-474]
pIC50: ≥ 8.00

COC(=O)[C@@H](NC(=O)[C@@H]1CN(C(=O)c2cnn(Cc3ccccc3)c2)CC12CN(C(=O)[C@H]1CC1(C)C)C2)[C@@H](C)OCC1CCCCC1 [I-475]
pIC50: ≥ 8.00

CNC(=O)[C@@H](NC(=O)[C@@H]1CN(C(=O)c2cnn(Cc3ccc(C(=O)O)cc3)c2)CC12CN(C(=O)[C@H]1CC1(C)C)C2)[C@@H](C)OCc1ccccc1 [I-476]
pIC50: 5.00 to 6.00

C[C@@H](OCC1CCCCC1)[C@H](NC(=O)[C@@H]1CN(C(=O)c2cnn(Cc3ccccc3)c2)CC12CN(C(=O)[C@H]1CC1(C)C)C2)C(=O)O [I-477]
pIC50: ≥ 8.00

C[C@@H](OCC1CCCCC1)[C@H](NC(=O)[C@@H]1CN(C(=O)c2cnn(Cc3ccccc3)c2)CC12CN(C(=O)[C@H]1CC1(C)C)C2)C(=O)NCCC(=O)OC(C)(C)C [I-478]
pIC50: ≥ 8.00

CCOC(=O)[C@H]1CCCN(C(=O)[C@@H](NC(=O)[C@@H]2CN(C(=O)c3cnn(Cc4ccccc4)c3)CC23CN(C(=O)[C@H]2CC2(C)C)C3)[C@@H](C)OCC2CCCCC2)C1 [I-482]
pIC50: ≥ 8.00

C[C@@H](OCC1CCCCC1)[C@H](NC(=O)[C@@H]1CN(C(=O)c2cnn(Cc3ccccc3)c2)CC12CN(C(=O)[C@H]1CC1(C)C)C2)C(=O)N1CCC[C@H](C(=O)O)C1 [I-483]
pIC50: ≥ 8.00

CCOC(=O)[C@@H]1CCCN(C(=O)[C@@H](NC(=O)[C@@H]2CN(C(=O)c3cnn(Cc4ccccc4)c3)CC23CN(C(=O)[C@H]2CC2(C)C)C3)[C@@H](C)OCC2CCCCC2)C1 [I-484]
pIC50: ≥ 8.00

CC1(C)C[C@@H]1C(=O)N1CC2(CN(C(=O)c3cncs3)C[C@H]2C(=O)NC(c2cccc(C3CCCCC3)n2)C2CCOC2)C1 (stereo partly drawn) [I-493]
pIC50: 7.00 to 8.00

CC1(C)C[C@@H]1C(=O)N1CC2(CN(C(=O)c3cncs3)C[C@H]2C(=O)NC(c2cccc(C3CCCCC3)n2)P(C)(C)=O)C1 (stereo partly drawn) [I-494]
pIC50: 6.00 to 7.00

CC1(C)C[C@@H]1C(=O)N1CC2(CN(C(=O)c3cncs3)C[C@H]2C(=O)NC(c2cccc(C3CCCCC3)n2)C2CCCO2)C1 (stereo partly drawn) [I-495]
pIC50: 7.00 to 8.00

CC1(C)C[C@@H]1C(=O)N1CC2(CN(C(=O)c3cncs3)C[C@H]2C(=O)NC(c2cccc(C3CCCCC3)n2)C2COCCO2)C1 (stereo partly drawn) [I-496]
pIC50: 7.00 to 8.00

CC1(C)C[C@@H]1C(=O)N1CC2(CN(C(=O)c3cncs3)C[C@H]2C(=O)NC(c2cccc(C3CCOCC3)n2)C2CCCO2)C1 (stereo partly drawn) [I-497]
pIC50: 5.00 to 6.00

CNC(=O)[C@@H](NC(=O)C1(C)CN(C(=O)c2cnn(Cc3ccccc3)c2)CC12CN(C(=O)[C@H]1CC1(C)C)C2)[C@@H](C)OCc1ccccc1 (stereo partly drawn) [I-498, 6-(1-benzyl-1H-pyrazole-4-carbonyl)-N-((2S,3R)-3-(benzyloxy)-1-(methylamino)-1-oxobutan-2-yl)-2-((S)-2,2-dimethylcyclopropane-1-carbonyl)-8-methyl-2,6-diazaspiro[3.4]octane-8-carboxamide]
pIC50: 5.00 to 6.00

CNC(=O)[C@@H](NC(=O)[C@]1(C)CN(C(=O)c2cnn(Cc3ccccc3)c2)CC12CN(C(=O)[C@H]1CC1(C)C)C2)[C@@H](C)OCC1CCCCC1 [I-499A]
pIC50: 5.00 to 6.00

CNC(=O)[C@@H](NC(=O)[C@@]1(C)CN(C(=O)c2cnn(Cc3ccccc3)c2)CC12CN(C(=O)[C@H]1CC1(C)C)C2)[C@@H](C)OCC1CCCCC1 [I-499B]
pIC50: < 5.00
